Columns and labels:
Format in all cases: functional
Staphylococcus aureus [1] = assay: Antimicrobial activity against heterogeneous vancomycin-intermediate Staphylococcus aureus 168 by macrodilution method
Staphylococcus aureus [2] = assay: Antimicrobial activity against methicillin-resistant Staphylococcus aureus 525 by macrodilution method
Staphylococcus aureus [3] = assay: Antimicrobial activity against heterogeneous vancomycin-intermediate Staphylococcus aureus 873 after 30 passages by macrodilution method
Staphylococcus aureus [4] = assay: Antimicrobial activity against vancomycin-intermediate Staphylococcus aureus 555 after 27 passages by macrodilution method
Staphylococcus aureus [5] = assay: Antimicrobial activity against vancomycin-intermediate Staphylococcus aureus 1287 after 18 passages by macrodilution method
Staphylococcus aureus [6] = assay: Antimicrobial activity against vancomycin-intermediate Staphylococcus aureus 1287 measured after 10 antibiotic-free subculturing by macrodilution method
Staphylococcus aureus [7] = assay: Antimicrobial activity against methicillin-resistant Staphylococcus aureus 525 measured after 10 antibiotic-free subculturing by macrodilution method
Staphylococcus aureus [8] = assay: Antimicrobial activity against methicillin-susceptible Staphylococcus aureus 543 measured after 10 antibiotic-free subculturing by macrodilution method
Staphylococcus aureus [9] = assay: Antimicrobial activity against methicillin-resistant Staphylococcus aureus 547 measured on day 5 by macrodilution method; details: Staphylococcus aureus, 547, 120 h
Staphylococcus aureus [10] = assay: Antimicrobial activity against methicillin-susceptible Staphylococcus aureus 540 measured on day 10 by macrodilution method; details: Staphylococcus aureus, 540, 240 h
Staphylococcus aureus [11] = assay: Antimicrobial activity against vancomycin-resistant Staphylococcus aureus 510 measured on day 10 by macrodilution method; details: Staphylococcus aureus, 510, 240 h
Staphylococcus aureus [12] = assay: Antimicrobial activity against heterogeneous vancomycin-intermediate Staphylococcus aureus 168 measured on day 15 by macrodilution method; details: Staphylococcus aureus, 168, 360 h
Staphylococcus aureus [13] = assay: Antimicrobial activity against heterogeneous vancomycin-intermediate Staphylococcus aureus 873 measured on day 15 by macrodilution method; details: Staphylococcus aureus, 873, 360 h
Staphylococcus aureus [14] = assay: Antimicrobial activity against vancomycin-resistant Staphylococcus aureus 509 measured on day 15 by macrodilution method; details: Staphylococcus aureus, 509, 360 h
Staphylococcus aureus [15] = assay: Antimicrobial activity against heterogeneous vancomycin-intermediate Staphylococcus aureus 873 measured on day 20 by macrodilution method; details: Staphylococcus aureus, 873, 480 h
Staphylococcus aureus [16] = assay: Antimicrobial activity against vancomycin-resistant Staphylococcus aureus 510 measured on day 20 by macrodilution method; details: Staphylococcus aureus, 510, 480 h
Staphylococcus aureus [17] = assay: Antimicrobial activity against vancomycin-intermediate Staphylococcus aureus 1287 measured on day 25 by macrodilution method; details: Staphylococcus aureus, 1287, 600 h
Staphylococcus aureus [18] = assay: Antimicrobial activity against vancomycin-resistant Staphylococcus aureus 510 measured on day 25 by macrodilution method; details: Staphylococcus aureus, 510, 600 h
Staphylococcus aureus [19] = assay: Antimicrobial activity against heterogeneous vancomycin-intermediate Staphylococcus aureus 873 measured on day 30 by macrodilution method
Staphylococcus aureus [20] = assay: Antimicrobial activity against vancomycin-resistant Staphylococcus aureus 509 measured on day 30 by macrodilution method
Staphylococcus aureus [21] = assay: Antimicrobial activity against heterogeneous vancomycin-intermediate Staphylococcus aureus 873 measured on day 35 by macrodilution method
Staphylococcus aureus [22] = assay: Antimicrobial activity against methicillin-resistant Staphylococcus aureus 525 measured on day 35 by macrodilution method
Staphylococcus aureus [23] = assay: Antimicrobial activity against heterogeneous vancomycin-intermediate Staphylococcus aureus 873 measured on day 40 by macrodilution method
Staphylococcus aureus [24] = assay: Antimicrobial activity against methicillin-resistant Staphylococcus aureus 525 measured on day 40 by macrodilution method
Staphylococcus aureus [25] = assay: Antimicrobial activity against heterogeneous vancomycin-intermediate Staphylococcus aureus 873 measured on day 50 by macrodilution method
Staphylococcus aureus [26] = assay: Antimicrobial activity against vancomycin-intermediate Staphylococcus aureus 555 measured on day 50 by macrodilution method

Measured: MIC

C[C@H]1C=C(c2csc(SC3=C(C(=O)O)N4C(=O)[C@H]([C@@H](C)O)[C@H]4[C@H]3C)n2)CN1 [RAZUPENEM]
2 µg/mL: Staphylococcus aureus [11] | Staphylococcus aureus [13] | Staphylococcus aureus [14]
4 µg/mL: Staphylococcus aureus [1] | Staphylococcus aureus [4] | Staphylococcus aureus [15] | Staphylococcus aureus [16] | Staphylococcus aureus [18] | Staphylococcus aureus [20]
8 µg/mL: Staphylococcus aureus [7] | Staphylococcus aureus [12] | Staphylococcus aureus [19]
0.5 µg/mL: Staphylococcus aureus [5] | Staphylococcus aureus [9] | Staphylococcus aureus [17]
1 µg/mL: Staphylococcus aureus [2]
0.25 µg/mL: Staphylococcus aureus [6]
0.016 µg/mL: Staphylococcus aureus [8] | Staphylococcus aureus [10]
16 µg/mL: all other assays above

— ChEMBL document CHEMBL1649524, “Resistance selection studies comparing the activity of razupenem (PTZ601) to vancomycin and linezolid against eight methicillin-resistant and two methicillin-susceptible Staphylococcus aureus strains” (2009)
